Source: paper PMC7539012, “Hyperphosphorylated tau aggregation and cytotoxicity modulators screen identified prescription drugs linked to Alzheimer's disease and cognitive functions” (Scientific Reports, 2020)
Where a name gives a salt, the structure may show the parent alone.

Legend:
[1] = parameters: method as in PMID 21071476; conditions: cited from earlier work
[2] = tested on: C291S C322S (C/S) and C291A C322A (C/A) mutant p-tau; experiment: aggregation of C/S or C/A mutant p-tau (ThS net change); type: biochemical; conditions: increasing doses of compound
Procedure: Figure 3 R-(−)-apomorphine and raloxifene are p-tau aggregation inhibitors (PTAIs) that act independently of the redox state of p-tau. (a) and (b) P-tau aggregation inhibition dose response curves of R-(−)-apomorphine and raloxifene. Aggregation of 6 µM of p-tau was done in the presence of the indicated concentrations of either compound. (c) Both R-(−)-apomorphine and raloxifene act independently of the two cysteine residues of p-tau. P-tau aggregation reactions with the C291S C322S (C/S) mutant p-tau were done in the presence of the indicated amounts of either compound. Shown are net changes of ThS over 16 h.
Many “hits” from prior tau-based HTS were non-selective redox modulators, due most likely to the susceptibility of unmodified tau fibrils to the oxidation of two cysteine residues of tau, C291 and C322. Because p-tau aggregation was not affected by changing the two cysteine residues to alanine or serine, we suspected that R-(−)-apomorphine and raloxifene would act independently of these two cysteine. […] By itself, the C/S p-tau gained 130 units of ThS fluorescence over the course of the aggregation reaction (blue column). With increasing doses of either compound, the net gain of ThS fluorescence decreased progressively. […]

[3] = tested on: HEK293T cells; experiment: intracellular fibril buildup and cell death after p-tau, ThS/PI double staining; type: cell-based; conditions: 15 µM compound added 24 h after p-tau
Procedure: Cells were harvested for ThS/PI staining after additional 24 or 48 h. ThS staining helped visualize intracellular fibrils. In this experiment, we used HEK293T cells to avoid potential interference from the endogenous tau. […] To gain a quantitative assessment, the numbers of the four possible combinations of ThS/PI staining were tallied.
(a) Experimental design. […] These images were from T24hr time point in panel (a) with 0.5 µM p-tau treatment. (c) Quantification of ThS and PI stainability among cells. Cells were categorized based on one of the four ThS/PI double-staining patterns. The total number of cells captured microscopically under each treatment was used as the denominator for the calculation of the proportion of each staining pattern, and expressed in this stacked column chart.
(§1) Cell viability assays were tested according to reference[60] with modifications. PTAIs were typically added to cells along with (Fig. 4) or after p-tau was added to cells (Fig. 5). For PTAEs, 10 × concentration of p-tau and the test compounds were assembled for pre-aggregation (without heparin or ThS) for 48 h before adding 10 µl to 100 µl of cells in 96-well plates. Twenty-four or 48 h after the addition of protein/compound, cells were trypsinized and transferred to microcentrifuge tubes, and pelleted at 1000 × g for 5 min at room temperature for FDA, PI, annexin V, and ThS staining. For PI/ThS double staining, cell pellets were resuspended in 20 mM Tris, pH7.4 buffer and incubated with 100 µM ThS for 5 min at room temperature. 5-µg/ml propidium iodide was then added to cell suspension for observation under a microscope.

[4] = target: T1, p-tau (Homo sapiens, UniProt P10636); experiment: p-tau aggregation assay, dose response (ThS fluorescence, inducer-free); type: biochemical; conditions: 6 µM p-tau, ThS fluorescence
T1 construct: made in house; host or cells: E. coli (PIMAX system)
Procedure: Aggregation of 6-µM p-tau under the influence of 30 µM of each of the library compounds or a DMSO vehicle control was monitored in 384-well plates every 10 min for ThS fluorescence changes over 16 h. To assess the quality of the high-throughput p-tau aggregation reactions, we used the T0 and T16hr ThS fluorescence units of no-compound control reactions to calculate the Z′-factor and coefficient of variation (CV), two commonly used criteria for robustness of high-throughput screens (HTS)[62]. A Z′-factor greater than 0.5 and CV smaller than 10% indicate robustness. […] To identify compounds with significant p-tau aggregation modulation, the net change of ThS fluorescence was calculated from all reactions (see Supplemental Table 1 for complete listing).
Aggregation of 6 µM of p-tau was done in the presence of the indicated concentrations of either compound. […] P-tau aggregation reactions with the C291S C322S (C/S) mutant p-tau were done in the presence of the indicated amounts of either compound. Shown are net changes of ThS over 16 h.
Given the tremendous socioeconomical burdens of AD, measures that prevent or delay the onset of the devastating neurodegeneration of AD will be highly impactful. If hyperphosphorylated tau-inflicted neuronal damages are an underpinning for AD and other tauopathies, enhancers of p-tau aggregation (PTAEs) may be risk factors for neurodegeneration. […] Prednicarbate is a synthetic corticosteroid for dermatological use, and carmofur (1-hexylcarbamoyl-5-fluorouracil) is an anti-neoplastic pyrimidine analogue. […] BZDs are among the most widely prescribed medication, in particular to the elderly, for depression and insomnia[70],[71]. We hypothesized that certain BZDs acted as a PTAE to potentiate p-tau aggregation and cytotoxicity. […] We therefore randomly picked nine prescription BZDs for p-tau aggregation assessment (Fig. 6; see Supplemental Fig. 5 for chemical structures). To 6-µM p-tau aggregation reactions, increasing doses of each of these BZDs were added.
Prednicarbate, a synthetic steroid, served as a PTAE control (yellow bars).
The aggregation assays over the course of this project have been done with multi-plate readers from different sources.
A common mix of 6 µM p-tau, 20 mM Tris pH 7.4, 1 mM DTT, and 20 µM ThS was assembled and dispensed to 384-well low-volume plates (10 µl per well) using BioTek EL406 Washer, followed by the addition of 150 nl of the Prestwick Library compounds (final concentration of 30 µM per well) or DMSO in a Beckman Coulter Biomek FX^P workstation. Each plate was covered with an Optical Adhesive Film and incubated at 37 °C for about 10 min. ThS fluorescence was measured every 10 min at 440/490 nm for 16 h by Biotek Synergy Neo Plate Reader. […] The real-time kinetics of ThS signals were collected using Gen5 software.

[5] = tested on: SH-SY5Y cells; experiment: cells; conditions: Homo sapiens, SH-SY5Y, read-out: EC50, concentration of compound to reduce p-tau cytotoxicity by 50%, SH-SY5Y, 0.8 µM p-tau
Procedure: (see below). […] PI is excluded by living cells, but diffuses into dead cells where it binds nucleic acid and emits fluorescence. FDA/PI differential staining thus provides a quantitative assessment of cellular viability. The blue curves in Fig. 4a,b depict the cellular viability after treatment with 0–0.8 µM of p-tau.
P-tau (without pre-aggregation) and compounds were added together to cells. Cell viability was quantified by FDA and PI differential staining 24 h later. […] Cellular viability was characterized as above and plotted against the compound concentration. Trend lines in panels (a)–(c) were obtained with the dose response curve fitting function of the software Origin (Origin Pro 8, OriginLab Corporation, Northampton, MA, USA). (d) Representative images of apoptotic cells after treatment of p-tau. SH-SY5Y cells were treated with 0.6 µM of p-tau for 12 h before harvesting for annexin V and PI staining. […] The percentage of apoptotic SH-SY5Y cells was quantified by annexin V and PI double staining of cells receiving 12 h of the indicated treatment under each column in the graph. Error bars are standard deviations; n = 3.
SH-SY5Y cells were treated with 0–0.6 µM of p-tau in conjunction with varying doses of nitrazepam, prazepam or devazepide. […] The red dotted lines indicate 50% viability. Curve fitting was done with the dose–response fitting function of the software Origin (version 8, OriginLab Inc.). The number in parentheses represents the concentration (in µM) of the indicated compound.
as §1
Supplemental Figure 2. […] SH-SY5Y cells were treated with the indicated concentrations p-tau and compounds (in µM) for 20 hours before FDA/PI differential staining and microscopic quantification. […] 0.2 or 0.4 µM of p-tau and 30 µM of each compound were pre-incubated in aggregation reactions for 24 hours before the 20-hr cell treatment and cytotoxicity quantification. FDA and PI dual staining was performed to measure cellular viability. SH-SY5Y cells Compounds in panel (a) were added to cells along with p-tau without pre-incubation.

[6] = tested on: 3xTg mice; conditions: cited from earlier work

T1 sequence (P10636 1-412 isoform P10636-7): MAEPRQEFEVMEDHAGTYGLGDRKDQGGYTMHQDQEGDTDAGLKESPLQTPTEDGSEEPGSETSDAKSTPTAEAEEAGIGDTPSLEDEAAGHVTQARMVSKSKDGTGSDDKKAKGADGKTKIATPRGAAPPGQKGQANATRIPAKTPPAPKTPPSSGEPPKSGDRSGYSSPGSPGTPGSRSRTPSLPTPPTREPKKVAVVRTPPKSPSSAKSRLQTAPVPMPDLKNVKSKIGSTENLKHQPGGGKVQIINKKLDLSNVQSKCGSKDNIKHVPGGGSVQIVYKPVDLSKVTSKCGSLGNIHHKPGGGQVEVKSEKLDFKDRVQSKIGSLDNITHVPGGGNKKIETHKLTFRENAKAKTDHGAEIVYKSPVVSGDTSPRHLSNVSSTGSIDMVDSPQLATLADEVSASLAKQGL

CN1CCc2cccc3c2[C@H]1Cc1ccc(O)c(O)c1-3 [Apomorphine, R-(−)-apomorphine hydrochloride]
blood brain barrier passage [1]: can pass the blood brain barrier
aggregation of C/A or C/S mutant p-tau [2]: effectively inhibited
live cells with cytoplasmic ThS fluorescence ([3]; 48-h samples): 26%
PI (+) ThS (+) cells ([3]; harvested after additional 24 h): 61%
PI (+) ThS (+) cells ([3]; harvested after additional 48 h): 44%
EC50 [4]: 18.1 µM
EC50 [5]: 2.9 µM
memory in 3xTg mice [6]: memory improvement
